# Test results from BigSolDB 2.1.
structure (smiles),measurement,setting,value
CC1(C)COP(=O)(O)OC1c1ccccc1Cl (centres undefined),solubility (mole fraction),"in acetic acid, 293.15 K",0.00131
same,solubility (mole fraction),"in acetic acid, 298.15 K",0.00156
same,solubility (mole fraction),"in acetic acid, 303.15 K",0.00186
same,solubility (mole fraction),"in acetic acid, 308.15 K",0.00221
same,solubility (mole fraction),"in acetic acid, 313.15 K",0.0025
same,solubility (mole fraction),"in acetic acid, 318.15 K",0.00277
same,solubility (mole fraction),"in acetic acid, 323.15 K",0.00341
same,solubility (mole fraction),"in acetic acid, 328.15 K",0.0039
same,solubility (mole fraction),"in acetic acid, 333.15 K",0.00449
same,solubility (mole fraction),"in acetic acid, 338.15 K",0.00523
same,solubility (mole fraction),"in ethanol, 278.15 K",0.00426
same,solubility (mole fraction),"in ethanol, 283.15 K",0.00473
same,solubility (mole fraction),"in ethanol, 288.15 K",0.00536
same,solubility (mole fraction),"in ethanol, 293.15 K",0.00614
same,solubility (mole fraction),"in ethanol, 298.15 K",0.00685
same,solubility (mole fraction),"in ethanol, 303.15 K",0.00783
same,solubility (mole fraction),"in ethanol, 308.15 K",0.00884
same,solubility (mole fraction),"in ethanol, 313.15 K",0.00995
same,solubility (mole fraction),"in ethanol, 318.15 K",0.0121
same,solubility (mole fraction),"in ethanol, 323.15 K",0.0135
same,solubility (mole fraction),"in isopropanol, 278.15 K",0.0114
same,solubility (mole fraction),"in isopropanol, 283.15 K",0.0135
same,solubility (mole fraction),"in isopropanol, 288.15 K",0.016
same,solubility (mole fraction),"in isopropanol, 293.15 K",0.0176
same,solubility (mole fraction),"in isopropanol, 298.15 K",0.0207
same,solubility (mole fraction),"in isopropanol, 303.15 K",0.0251
same,solubility (mole fraction),"in isopropanol, 308.15 K",0.029
same,solubility (mole fraction),"in isopropanol, 313.15 K",0.0342
same,solubility (mole fraction),"in isopropanol, 318.15 K",0.0391
same,solubility (mole fraction),"in isopropanol, 323.15 K",0.0448
same,solubility (mole fraction),"in methanol, 278.15 K",0.00445
same,solubility (mole fraction),"in methanol, 283.15 K",0.00519
same,solubility (mole fraction),"in methanol, 288.15 K",0.00572
same,solubility (mole fraction),"in methanol, 293.15 K",0.00644
same,solubility (mole fraction),"in methanol, 298.15 K",0.00713
same,solubility (mole fraction),"in methanol, 303.15 K",0.00809
same,solubility (mole fraction),"in methanol, 308.15 K",0.00892
same,solubility (mole fraction),"in methanol, 313.15 K",0.0105
same,solubility (mole fraction),"in methanol, 318.15 K",0.0125
same,solubility (mole fraction),"in methanol, 323.15 K",0.0145
same,solubility (mole fraction),"in tert-butanol, 303.15 K",0.0228
same,solubility (mole fraction),"in tert-butanol, 308.15 K",0.0281
same,solubility (mole fraction),"in tert-butanol, 313.15 K",0.0313
same,solubility (mole fraction),"in tert-butanol, 318.15 K",0.0359
same,solubility (mole fraction),"in tert-butanol, 323.15 K",0.0398
same,solubility (mole fraction),"in tert-butanol, 328.15 K",0.0469
same,solubility (mole fraction),"in tert-butanol, 333.15 K",0.051
same,solubility (mole fraction),"in tert-butanol, 338.15 K",0.0574
same,solubility (mole fraction),"in tert-butanol, 343.15 K",0.0629
same,solubility (mole fraction),"in tert-butanol, 348.15 K",0.0691
same,solubility (mole fraction),"in water, 278.15 K",0.000124
same,solubility (mole fraction),"in water, 283.15 K",0.000123
same,solubility (mole fraction),"in water, 288.15 K",0.000136
same,solubility (mole fraction),"in water, 293.15 K",0.000157
same,solubility (mole fraction),"in water, 298.15 K",0.000162
same,solubility (mole fraction),"in water, 303.15 K",0.000164
same,solubility (mole fraction),"in water, 308.15 K",0.000166
same,solubility (mole fraction),"in water, 313.15 K",0.000168
same,solubility (mole fraction),"in water, 318.15 K",0.00017
